# According to US4321381A, “Ergot derivatives” (Farmitalia Carlo Erba S.p.A., priority 1978, dated 1982):
# How the values were obtained:
# normotensive rats = assay: Blood pressure and heart rate in the conscious normotensive rat (NR); type: in vivo; details: 5 mg/kg os
# Description: Blood pressure recordings have been made in conscious normotensive unrestrained rats weighing approximately 300 g, via a catheter chronically inserted into the left common carotid artery. Implantation of arterial cannula was made under sodium pentobarbital anesthesia (50 mg/kp i.p.) A 1 cm long incision was made through the previously shaved ventral surface of the neck and the tissues overlying the trachea parted by blunt dissection to reveal the carotid artery. The polyethylene catheter used was made with PE 50 tubing, previously filled with saline containing 250 I.U./ml heparin. The tip of the cannula was pushed at least 2 cm inside the vessel toward the heart. The cannula was then firmly tied and passed beneath the skin to emerge from a small incision in the back of the neck. During the post-operative period and before the start of each recording session, the cannula was flushed through daily with saline containing heparin (250 I.U./ml). The experiments were performed two days after surgery. Drugs were administered by gastric gavage.
# [1] = Acute toxicity (LD50) in mice; type: in vivo, mouse; details: mouse, in vivo; male mice; oral; observed for seven days
# Source text: (§1) Evaluation of the Toxicity (LD50)
# (§2) Ten male mice for each group were orally treated with drugs at different dose levels for the determination of lethal dose 50 (LD50).
# [2] = test system: spontaneously hypertensive male rats, strain MHS; assay: Anti-hypertensive activity in the spontaneously hypertensive rat (MHS): blood pressure and heart rate at the tail; type: in vivo
# Description: 1. Spontaneously Hypertensive Rat (MHS)
# Four spontaneously hypertensive male rats, strain MHS, weight 250 to 300 g for each group were used. The animals were treated for four consecutive days. The drugs were administered by gastric gavage while suspended in 5% arabic gum (0.2 ml/100 g body weight), and blood pressure (BP) and heart rate (HR) were measured at the tail by BP Recorder W+W. Blood pressure and heart rate were measured on the first and fourth day of treatment 1 hour before and 1 and 5 hours after drug administration.
# male mice = assay: Acute toxicity (LD50) in mice; type: in vivo, mouse; details: oral, observed for seven days, 10080 min
# Source text: as §1, §2
SMILES,"Change in Blood Pressure after Treatment, 30' (normotensive rats)","Change in heart rate after treatment, 30' (normotensive rats)","Change in Blood Pressure after Treatment, 60' (normotensive rats)","Change in heart rate after treatment, 60' (normotensive rats)","Change in Blood Pressure after Treatment, 120' (normotensive rats)","Change in heart rate after treatment, 120' (normotensive rats)","Change in Blood Pressure after Treatment, 180' (normotensive rats)","Change in heart rate after treatment, 180' (normotensive rats)","Change in Blood Pressure after Treatment, 240' (normotensive rats)","Change in heart rate after treatment, 240' (normotensive rats)","Change in Blood Pressure after Treatment, 360' (normotensive rats)","Change in heart rate after treatment, 360' (normotensive rats)","Change in Blood Pressure after Treatment, 24h (normotensive rats)","Change in heart rate after treatment, 24h (normotensive rats)",LD50 at 168 h [1],"Change in BP, 1 hr after dose, first day ([2]; 2 mg/kg os)","Change in HR, 1 hr after dose, first day ([2]; 2 mg/kg os)","Change in HR, 5 hr after dose, first day ([2]; 2 mg/kg os)","Change in BP, 5 hrs after dose, first day ([2]; 2 mg/kg os)","Change in BP, 1 hr after dose, fourth day ([2]; 2 mg/kg os)",further results
"CCNC(=O)C(C#N)C[C@@H]1C[C@@H]2c3cccc4[nH]cc(c34)C[C@H]2N(C)C1 (stereo partly drawn) [Example 1138, 2-Cyano-3-(6'-methylergoline-8'β)-N-ethylpropionamide]",-10 mm Hg,-15 b/min,-20 mm Hg,-30 b/min,-15 mm Hg,-30 b/min,-10 mm Hg,-15 b/min,-10 mm Hg,0 b/min,0 mm Hg,+5 b/min,0 mm Hg,+10 b/min,500 mg/kg,-23 mm Hg,-25 b/min,-10 b/min,-14 mm Hg,-30 mm Hg,"Change in HR, 1 hr after dose, fourth day ([2]; 2 mg/kg os): -47 b/min; Change in HR, 5 hr after dose, fourth day ([2]; 2 mg/kg os): -12 b/min; Change in BP, 5 hrs after dose, fourth day ([2]; 2 mg/kg os): -15 mm Hg; Change in BP, 1 hr after dose, first day ([2]; 5 mg/kg os): -25 mm Hg; Change in HR, 1 hr after dose, first day ([2]; 5 mg/kg os): -8 b/min; Change in HR, 5 hr after dose, first day ([2]; 5 mg/kg os): +5 b/min; Change in BP, 5 hrs after dose, first day ([2]; 5 mg/kg os): -9 mm Hg; Change in BP, 1 hr after dose, fourth day ([2]; 5 mg/kg os): -26 mm Hg; Change in HR, 1 hr after dose, fourth day ([2]; 5 mg/kg os): -20 b/min; Change in HR, 5 hr after dose, fourth day ([2]; 5 mg/kg os): -25 b/min; Change in BP, 5 hrs after dose, fourth day ([2]; 5 mg/kg os): -11 mm Hg"
"CN1C[C@H](CC(C#N)C(N)=O)C[C@@H]2c3cccc4[nH]c(Br)c(c34)C[C@H]21 (stereo partly drawn) [Example 1139, 2-Cyano-3-(2-bromo-6'-methylergoline-8'β)-propionamide]",-5 mm Hg,0 b/min,-12 mm Hg,+10 b/min,-12 mm Hg,+10 b/min,-10 mm Hg,-5 b/min,-5 mm Hg,0 b/min,0 mm Hg,+15 b/min,+2 mm Hg,0 b/min,125 mg/kg,-13 mm Hg,+7 b/min,+12 b/min,-23 mm Hg,-18 mm Hg,"Change in HR, 1 hr after dose, fourth day ([2]; 2 mg/kg os): +47 b/min; Change in HR, 5 hr after dose, fourth day ([2]; 2 mg/kg os): +35 b/min; Change in BP, 5 hrs after dose, fourth day ([2]; 2 mg/kg os): -12 mm Hg; Change in BP, 1 hr after dose, first day ([2]; 5 mg/kg os): -25 mm Hg; Change in HR, 1 hr after dose, first day ([2]; 5 mg/kg os): +28 b/min; Change in HR, 5 hr after dose, first day ([2]; 5 mg/kg os): +13 b/min; Change in BP, 5 hrs after dose, first day ([2]; 5 mg/kg os): -24 mm Hg; Change in BP, 1 hr after dose, fourth day ([2]; 5 mg/kg os): -12 mm Hg; Change in HR, 1 hr after dose, fourth day ([2]; 5 mg/kg os): -10 b/min; Change in HR, 5 hr after dose, fourth day ([2]; 5 mg/kg os): -12 b/min; Change in BP, 5 hrs after dose, fourth day ([2]; 5 mg/kg os): -13 mm Hg"
"NNc1nncc2ccccc12 [Hydralazine, hydralazine, reference compound]",-19 mm Hg,+70 b/min,-13 mm Hg,+40 b/min,-10 mm Hg,+21 b/min,-7 mm Hg,+9 b/min,-5 mm Hg,+21 b/min,-7 mm Hg,+12 b/min,0 mm Hg,+3 b/min,122 mg/kg,+2 mm Hg,+10 b/min,-28 b/min,+18 mm Hg,+7 mm Hg,"Change in HR, 1 hr after dose, fourth day ([2]; 2 mg/kg os): +43 b/min; Change in HR, 5 hr after dose, fourth day ([2]; 2 mg/kg os): +23 b/min; Change in BP, 5 hrs after dose, fourth day ([2]; 2 mg/kg os): +15 mm Hg; Change in BP, 1 hr after dose, first day ([2]; 5 mg/kg os): -52 mm Hg; Change in HR, 1 hr after dose, first day ([2]; 5 mg/kg os): -45 b/min; Change in HR, 5 hr after dose, first day ([2]; 5 mg/kg os): +12 b/min; Change in BP, 5 hrs after dose, first day ([2]; 5 mg/kg os): -38 mm Hg; Change in BP, 1 hr after dose, fourth day ([2]; 5 mg/kg os): -7 mm Hg; Change in HR, 1 hr after dose, fourth day ([2]; 5 mg/kg os): +10 b/min; Change in HR, 5 hr after dose, fourth day ([2]; 5 mg/kg os): +12 b/min; Change in BP, 5 hrs after dose, fourth day ([2]; 5 mg/kg os): -8 mm Hg"
"C[C@](N)(Cc1ccc(O)c(O)c1)C(=O)O [α-methyl-DOPA, reference compound]",,,,,,,,,,,,,,,,,,,,,"LD50 (male mice): 5300 mg/kg per os; Change in HR, 1 hr after dose, first day ([2]; 30 mg/kg os): +40 b/min; Change in HR, 5 hr after dose, first day ([2]; 30 mg/kg os): +15 b/min; Change in BP, 5 hrs after dose, first day ([2]; 30 mg/kg os): -12 mm Hg; Change in BP, 1 hr after dose, fourth day ([2]; 30 mg/kg os): -12 mm Hg; Change in HR, 1 hr after dose, fourth day ([2]; 30 mg/kg os): +57 b/min; Change in HR, 5 hr after dose, fourth day ([2]; 30 mg/kg os): -18 b/min; Change in BP, 5 hrs after dose, fourth day ([2]; 30 mg/kg os): -19 mm Hg; Change in BP, 1 hr after dose, first day ([2]; 100 mg/kg os): +5 mm Hg; Change in HR, 1 hr after dose, first day ([2]; 100 mg/kg os): +87 b/min; Change in BP, 5 hrs after dose, first day ([2]; 100 mg/kg os): -38 mm Hg; Change in BP, 1 hr after dose, fourth day ([2]; 100 mg/kg os): -41 mm Hg; Change in HR, 1 hr after dose, fourth day ([2]; 100 mg/kg os): +77 b/min; Change in HR, 5 hr after dose, fourth day ([2]; 100 mg/kg os): +37 b/min; Change in BP, 5 hrs after dose, fourth day ([2]; 100 mg/kg os): -53 mm Hg; variation of the heart rate (HR), in words ([2]; Table 2): greatly increases it"
